Consider 82 sequences from the OligoGym collection.

This data set has as its target IRF4. The following applies: ASO.

Several values for one entry are separate records, joined by “and”; a condition that tells them apart may be missing. Identical values can stand only once. After the bases stand the sugars from the 5' end (letter, count) and the backbone: PS all phosphorothioate, else s phosphorothioate and o phosphodiester by linkage. Methylation of C is not given here. e = 2'-O-(2-methoxyethyl) (MOE); k = constrained ethyl (cEt); d = 2'-deoxy (DNA)

As for GCTCATTTCACTGTAG (sugars k3 d10 k3, PS), the target mRNA inhibition (SK-MEL-28, 4 µM) came to 64%. For GGACTCCGGGAGCCTG (sugars k3 d10 k3, PS), the target mRNA inhibition (MM.1R, 1 µM) was -8%. As to “AGTGATGTCAGGTTTT (sugars kkkdddddddddkeke, PS)”, the target mRNA inhibition runs as follows: (MM.1R, 0.074 µM) 15%; (MM.1R, 0.222 µM) 36%; (MM.1R, 0.666 µM) 55%; (MM.1R, 1 µM) 59%; (MM.1R, 2 µM) 79%.

For the sequence GGACTAAGGACAGCTG (sugars k3 d10 k3, PS), where the note is “MM.1R, 1 µM”, the target mRNA inhibition stood at 13%. With GCAGAACGAGGTAAAT (sugars k3 d10 k3, PS), the target mRNA inhibition (SK-MEL-28, 4 µM) is 62%. In the case of TCACTAAGCTTGATAA (sugars k3 d10 k3, PS), the target mRNA inhibition (SK-MEL-28, 4 µM) was 37%. On the same count and under the same terms, the same measure for CAATTGAAATGGAGCA (sugars k3 d10 k3, PS): 26%; for CTACTTCAGCTACATT (sugars k3 d10 k3, PS): 47%; for GAGCGAAGGGTAAGGC (sugars k3 d10 k3, PS): 38%. As for GTCCACTGAGTACAAA (sugars k3 d10 k3, PS), the target mRNA inhibition (SK-MEL-28, 4 µM) was 13%. With “CTATAGTGTTCCAGGA (sugars kkkdddddddddkeke, PS)”, the target mRNA inhibition (MM.1R, 1 µM) is 22%. Turning to CACTAATACCTACCTG (sugars k3 d10 k3, PS), the target mRNA inhibition (SK-MEL-28, 4 µM) came out at 6%. Regarding AGTTAAGTACTTGGAC (sugars k3 d10 k3, PS), where the note is “SK-MEL-28, 4 µM”, the target mRNA inhibition is 42%. Regarding TACAAGCAGTCATCAC (sugars k3 d10 k3, PS), the target mRNA inhibition (SK-MEL-28, 4 µM) worked out at 29%. With GGGAGAGCGGAGGCGG (sugars k3 d10 k3, PS), under “SK-MEL-28, 4 µM”, the target mRNA inhibition amounted to 22%. For TCTATGGGATTATATA (sugars k3 d10 k3, PS), the target mRNA inhibition (SK-MEL-28, 4 µM) worked out at 26%. CTCTCCAGGTGGCTCA (sugars k4 d8 k4, PS): the target mRNA inhibition (SK-MEL-28, 4 µM) was determined as 12%. Still for that read-out and setting: the same measure for TTAGAGGACAGTGACT (sugars k3 d10 k3, PS): 18%; for GAGTCACCTGGAATCT (sugars k4 d8 k4, PS): 6%. Turning to TGCCTTACCTGACAAG (sugars k3 d10 k3, PS), the target mRNA inhibition (MM.1R, 1 µM) is 4%.

Regarding GATTTCCGGGTGTGGC (sugars k3 d10 k3, PS), the target mRNA inhibition (MM.1R, 0.0625 µM) was 14%; the target mRNA inhibition (MM.1R, 0.25 µM) is -11%; the target mRNA inhibition (MM.1R, 4 µM) amounted to 33%.

On to GTCCCCTCTACTTCAG (sugars k3 d10 k3, PS), for which the target mRNA inhibition (SK-MEL-28, 4 µM) was determined as 41%. Turning to AGGGATGGAACAGTAA (sugars k3 d10 k3, PS), the target mRNA inhibition (SK-MEL-28, 4 µM) came to 47%. Take AAGAATGGCGCATAGG (sugars k3 d10 k3, PS): the target mRNA inhibition runs as follows: (MM.1R, 0.0625 µM) -1% and 19%; (MM.1R, 0.25 µM) 12% and 27%; (MM.1R, 1 µM) 28% and 42%; (MM.1R, 4 µM) 55% and 66%; (SK-MEL-28, 4 µM) 81%. For TTACCATTTTCACAAG (sugars k4 d8 k4, PS), the target mRNA inhibition (SK-MEL-28, 4 µM) came to 7%. Regarding CCACAGTGAAGTCGGG (sugars k3 d10 k3, PS), the target mRNA inhibition (MM.1R, 1 µM) was 6%. In the case of GGATAGATCTGTGGTA (sugars k3 d10 k3, PS), where the note is “SK-MEL-28, 4 µM”, the target mRNA inhibition was 49%. For TTAAAGATGCCAGAGG (sugars k3 d10 k3, PS), the target mRNA inhibition (SK-MEL-28, 4 µM) was 28%. Take CCCCAGCTATGCTCTA (sugars k3 d10 k3, PS): for the setting “MM.1R, 1 µM”, the target mRNA inhibition was -30%. As to “ACACTTTTAGAGAGGA (sugars k2 d9 e3 k2, PS)”, for the setting “MM.1R, 1 µM”, the target mRNA inhibition came to 21%. For “TCAGTTTGTGAAGCAT (sugars kkdddddddddekeke, PS)”, the target mRNA inhibition (MM.1R, 1 µM) turned out to be 45%. As to CAGTGCTCTTTAACAA (sugars k3 d10 k3, PS), the target mRNA inhibition (SK-MEL-28, 4 µM) was determined as 37%. For “CAGTTGTAAATGAGTC (sugars kkdddddddddekeke, PS)”, the target mRNA inhibition was 1% (H929, 0.00067 µM); 27% (H929, 0.002 µM); 45% (H929, 0.00667 µM); 60% (H929, 0.02 µM); 34% (H929, 0.04 µM); 83% and 90% (KMS11, 0.2 µM). For the same sequence, the target mRNA inhibition worked out at 12% (MM.1R, 0.074 µM); 39% (MM.1R, 0.222 µM); 65% (MM.1R, 0.666 µM); 72% (MM.1R, 1 µM); 88% (MM.1R, 2 µM). For “AGCTTGATAAAGGCTG (sugars kkddddddddddkeke, PS)”, for the setting “MM.1R, 1 µM”, the target mRNA inhibition came out at 1%.

In the case of CAGCACTCAGATTCTA (sugars k3 d10 k3, PS), the target mRNA inhibition (SK-MEL-28, 4 µM) is 12%. The same measure, in the same setting: the same measure for CACCACCTCGAGGCCA (sugars k3 d10 k3, PS): 24%. With GCACGGAGAGGGCGAG (sugars k3 d10 k3, PS), the target mRNA inhibition (MM.1R, 1 µM) amounted to 4%. As to CGCTGGACAGCCAAAC (sugars k3 d10 k3, PS), the target mRNA inhibition (SK-MEL-28, 4 µM) was determined as 41%.

Turning to CTAAATCACCCTGGTC (sugars k3 d10 k3, PS), the target mRNA inhibition (SK-MEL-28, 4 µM) came out at 47%. For AATGATGGCAGTCTAC (sugars k3 d10 k3, PS), the target mRNA inhibition (SK-MEL-28, 4 µM) worked out at 33%.

As to TTATCATCCGAAAAGA (sugars k3 d10 k3, PS), the target mRNA inhibition (MM.1R, 1 µM) worked out at 4%. Turning to GTAAAACATAACTTAC (sugars k3 d10 k3, PS), the target mRNA inhibition (SK-MEL-28, 4 µM) worked out at 8%. With AACACGGGAATTTCCA (sugars k3 d10 k3, PS), where the note is “SK-MEL-28, 4 µM”, the target mRNA inhibition came out at 73%.

As for “AGCAGTGATGTCAGGT (sugars kdddddddddkekeke, PS)”, the target mRNA inhibition (MM.1R, 1 µM) was 26% and 36%. On to “TGGTTGGCTGGTCTTT (sugars k2 d9 e3 k2, PS)”, for which the target mRNA inhibition (MM.1R, 1 µM) is 40%. Take TCGCCCATGAGTTGAA (sugars k3 d10 k3, PS): under “SK-MEL-28, 4 µM”, the target mRNA inhibition worked out at 39%. Regarding CTTATTATTTATGAGC (sugars k3 d10 k3, PS), the target mRNA inhibition (SK-MEL-28, 4 µM) is 37%. For the sequence TTACTCTTAGGCACAT (sugars k3 d10 k3, PS), under “MM.1R, 1 µM”, the target mRNA inhibition is 44% and 45%. On to AATCATGATATTAGAG (sugars k3 d10 k3, PS), for which the target mRNA inhibition (SK-MEL-28, 4 µM) worked out at 31%.

Turning to CCCCTCTCCAGGTGGC (sugars k3 d10 k3, PS), the target mRNA inhibition (SK-MEL-28, 4 µM) is 13%. Consider CATGATATTAGAGACT (sugars k3 d10 k3, PS), for which the target mRNA inhibition (SK-MEL-28, 4 µM) turned out to be 56%. On the same count and under the same terms, the value for TGACATAAAGGACCCC (sugars k3 d10 k3, PS) was 48%; that for CCGTCCCAGTAGATCC (sugars k3 d10 k3, PS) was 25%. On to “ACTTTTAGAGAGGAGA (sugars kkkdddddddddkeke, PS)”, for which, for the setting “MM.1R, 1 µM”, the target mRNA inhibition turned out to be 41%. As for “AGCAGTGATGTCAGGT (sugars kkddddddddddkeke, PS)”, where the note is “MM.1R, 1 µM”, the target mRNA inhibition is 67% and 64%.

As for AGCATATTCCAACAGG (sugars k3 d10 k3, PS), the target mRNA inhibition (MM.1R, 0.0625 µM) is -1%; the target mRNA inhibition (MM.1R, 0.074 µM) is -8%; the target mRNA inhibition (MM.1R, 0.222 µM) was -6%; the target mRNA inhibition (MM.1R, 0.25 µM) worked out at 6%; the target mRNA inhibition (MM.1R, 0.666 µM) turned out to be 19%; the target mRNA inhibition (MM.1R, 1 µM) came to 18%. The target mRNA inhibition by setting is: (MM.1R, 2 µM) 32%; (MM.1R, 4 µM) 58%; (SK-MEL-28, 4 µM) 69%.

With “TGTTACCGATGCTTCA (sugars k2 d9 e3 k2, PS)”, the target mRNA inhibition (MM.1R, 1 µM) is 31% and 39%. With GTAGACCACAGTGAAG (sugars k3 d10 k3, PS), the target mRNA inhibition (SK-MEL-28, 4 µM) amounted to 29%. As for CAAAGAGCTTGCAGGT (sugars k3 d10 k3, PS), the target mRNA inhibition (SK-MEL-28, 4 µM) was determined as 4%. Still for that read-out and setting: the value for ACTTACAGGACTATTT (sugars k3 d10 k3, PS) was 16%; that for ATCTAATCCACAATCA (sugars k3 d10 k3, PS) was 30%. Still for that read-out and setting: the value for CTGACTTTAATATTAG (sugars k3 d10 k3, PS) was 56%.

As for CCGCCCGCTCTGCTCT (sugars k3 d10 k3, PS), the target mRNA inhibition (SK-MEL-28, 4 µM) amounted to 54%.

With ACGAGGTAAATCTTCA (sugars k3 d10 k3, PS), for the setting “SK-MEL-28, 4 µM”, the target mRNA inhibition was 61%.

Turning to GCATGGATCCTGAGAG (sugars k3 d10 k3, PS), the target mRNA inhibition (MM.1R, 1 µM) was 11%. Regarding GGCTAGCTGTATTTAT (sugars k3 d10 k3, PS), the target mRNA inhibition (SK-MEL-28, 4 µM) stood at 37%.

With “TGTGCTTGCCAAGCCT (sugars kkddddddddddkeke, PS)”, for the setting “MM.1R, 1 µM”, the target mRNA inhibition is 26% and 30%. Turning to TGGCAGTGGAGCTCCA (sugars k3 d10 k3, PS), the target mRNA inhibition (SK-MEL-28, 4 µM) was found to be 46%. Regarding GGAACGAAGAGCAGGG (sugars k3 d10 k3, PS), the target mRNA inhibition (MM.1R, 1 µM) was determined as 12%. On to “TCTATAGTGTTCCAGG (sugars kdddddddddkekeke, PS)”, for which the target mRNA inhibition (MM.1R, 1 µM) is 12%. Turning to CCTAGAGGTGCCTTCT (sugars k3 d10 k3, PS), the target mRNA inhibition (SK-MEL-28, 4 µM) stood at 41%. For the sequence GCTCACCGCGCTCATG (sugars k3 d10 k3, PS), under “SK-MEL-28, 4 µM”, the target mRNA inhibition stood at 48%.

For “TTATATACTGGTTGGT (sugars kkdddddddddkekek, PS)”, under “MM.1R, 1 µM”, the target mRNA inhibition is 50%. Regarding AATAGAGGAATGGCGG (sugars k3 d10 k3, PS), for the setting “SK-MEL-28, 4 µM”, the target mRNA inhibition was 53%. Turning to CGGCTCCTCCTCCTTT (sugars k3 d10 k3, PS), for the setting “SK-MEL-28, 4 µM”, the target mRNA inhibition came to 11%. In the case of CAGCATGACAGGGCGA (sugars k3 d10 k3, PS), for the setting “SK-MEL-28, 4 µM”, the target mRNA inhibition stood at 56%. Consider “ACACTTTTAGAGAGGA (sugars kkdddddddddekeke, PS)”, for which the target mRNA inhibition (MM.1R, 1 µM) was determined as 41%. In the case of “AGTGATGTCAGGTTTT (sugars kddddddddddkekek, PS)”, under “MM.1R, 1 µM”, the target mRNA inhibition came to 25%.

Take AGTTCATTCCCTAGGT (sugars k3 d10 k3, PS): the target mRNA inhibition (SK-MEL-28, 4 µM) turned out to be 44%. On the same count and under the same terms, the value for GACACATTTTCTGGGT (sugars k3 d10 k3, PS) was 53% and 64%.

Turning to GTCTGAGTTGTACAGG (sugars k3 d10 k3, PS), where the note is “MM.1R, 1 µM”, the target mRNA inhibition was 52% and 57%. In the case of ATGCATAGTGATGAGA (sugars k3 d10 k3, PS), the target mRNA inhibition (SK-MEL-28, 4 µM) stood at 45%.
